Experimental data reported in PubChem BioAssay AID1259411 (Chemical Carcinogenesis Research Information System (CCRIS), 2018).
Calls of active or inactive are those of the source. How the calls were made is not given here.

Tested on: rodent carcinogenicity bioassays, tumor incidence
Assay: CCRIS carcinogenicity studies
Details: Dose: 0, Dose: 0
Outline: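 NCI-built, expert-reviewed records of carcinogenicity and related test outcomes (mutagenicity, tumor promotion/inhibition) compiled from published and report sources, historical span 1985-2011, not updated.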

SMILES: CC1=C(C(=O)Nc2ccccc2)SCCO1
- carcinogen call (Species: Mouse, Strain/Sex: Charles River/Female (50 per group in experimental animals; 75 controls), Route: Oral, 50, 2,500, 5,000 ppm in diet for 19 mo, 50, 2,500, 5,000 ppm in diet for 19 mo): inactive; negative (purity >99%; study details not given in source)
- carcinogen call (Species: Mouse, Strain/Sex: Charles River/Male (50 per group in experimental animals; 75 controls), Route: Oral, 50, 2,500, 5,000 ppm in diet for 19 mo, 50, 2,500, 5,000 ppm in diet for 19 mo, Tumor Site: Type of Lesion: LUNG, Pulmonary adenomas and alveolar-bronchiolar adenomas (34% in high dose group vs 17% in controls; significant), Tumor Site: Type of Lesion: LUNG, Pulmonary adenomas and alveolar-bronchiolar adenomas (34% in high dose group vs 17% in controls; significant)): active; positive (purity >99%; study details not given in source)
- carcinogen call (Species: Rat, Strain/Sex: Crl:CD SD/Female (50 per group), Route: Oral, 20, 300, 600 ppm in diet for 102 wk, 20, 300, 600 ppm in diet for 102 wk): inactive; negative (purity 97.7%; study details not given in source)
- carcinogen call (Species: Rat, Strain/Sex: Crl:CD SD/Male (50 per group), Route: Oral, 20, 200, 400 ppm in diet for 102 wk, 20, 200, 400 ppm in diet for 102 wk): inactive; negative (purity 97.7%; study details not given in source)

SMILES: CCCl
- carcinogen call (Species: MOUSE, Strain/Sex: B6C3F1/FEMALE, Route: INHALATION, 15000 PPM IN AIR 6 HR/D 5 D/WK FOR 100 WK (STUDY DURATION: 100 WK), Tumor Site: Type of Lesion: LIVER: HEPATOCELLULAR CARCINOMA, LIVER: HEPATOCELLULAR ADENOMA OR CARCINOMA, UTERUS: CARCINOMA, Tumor Site: Type of Lesion: LIVER: HEPATOCELLULAR CARCINOMA, LIVER: HEPATOCELLULAR ADENOMA OR CARCINOMA, UTERUS: CARCINOMA): active; positive
- carcinogen call (Species: Mouse, Strain/Sex: B6C3F1/Female (50/Group), Route: Inhalation, 15,000 ppm 6 hr/d, 5 d/wk for 100 wk, Tumor Site: Type of Lesion: Uterus: carcinoma (2% vs 90%, p<10-8), Uterus: lymphoma (2% vs 14%, p=0.03), Liver: adenoma and carcinoma (6% vs 17%, p=, Tumor Site: Type of Lesion: Uterus: carcinoma (2% vs 90%, p<10-8), Uterus: lymphoma (2% vs 14%, p=0.03), Liver: adenoma and carcinoma (6% vs 17%, p=): active; positive
- carcinogen call (Species: Mouse, Strain/Sex: B6C3F1/Male (50/Group), Route: Inhalation, 15,000 ppm 6 hr/d, 5 d/wk for 100 wk): inactive; negative
- carcinogen call (Species: RAT, Strain/Sex: F344/FEMALE, Route: INHALATION, 15000 PPM IN AIR 6 HR/D 5 D/WK FOR 102 WK (STUDY DURATION: 102 WK), Tumor Site: Type of Lesion: BRAIN: ASTROCYTOMA): equivocal
- carcinogen call (Species: RAT, Strain/Sex: F344/MALE, Route: INHALATION, 15000 PPM IN AIR 6 HR/D 5 D/WK FOR 102 WK (STUDY DURATION: 102 WK), Tumor Site: Type of Lesion: SKIN: TRICHOEPITHELIOMA, SEBACEOUS GLAND ADENOMA OR BASAL CELL CARCINOMA): equivocal
- carcinogen call (Species: Rat, Strain/Sex: F344/Female (50/Group), Route: Inhalation, 15,000 ppm 6 hr/d, 5 d/wk for 102 wk): inactive; negative
- carcinogen call (Species: Rat, Strain/Sex: F344/Male (50/Group), Route: Inhalation, 15,000 ppm 6 hr/d, 5 d/wk for 102 wk): inactive; negative

SMILES: CCN(N=O)C(=O)NC
- carcinogen call (Species: RAT, Strain/Sex: F344/FEMALE, Route: GAVAGE, 20, 40 UMOL/WK IN CORN OIL/ETHYL ACETATE (2: 1) FOR 30 WK FOR TOTAL DOSES OF 0, 0.6, 1.2 MMOL (STUDY DURATION: LIFETI, 20, 40 UMOL/WK IN CORN OIL/ETHYL ACETATE (2: 1) FOR 30 WK FOR TOTAL DOSES OF 0, 0.6, 1.2 MMOL (STUDY DURATION: LIFETI, Tumor Site: Type of Lesion: MAMMARY GLAND: TUMOR, UTERUS: TUMOR): active; positive
- carcinogen call (Species: RAT, Strain/Sex: F344/FEMALE, Route: ORAL, 20, 40 UMOL/WK IN DRINKING WATER FOR 30 WK FOR TOTAL DOSES OF 0, 0.6, 1.2 MMOL (STUDY DURATION: LIFETIME), 20, 40 UMOL/WK IN DRINKING WATER FOR 30 WK FOR TOTAL DOSES OF 0, 0.6, 1.2 MMOL (STUDY DURATION: LIFETIME), Tumor Site: Type of Lesion: LUNG: TUMOR, MAMMARY GLAND: TUMOR, UTERUS: TUMOR, THYROID: FOLLICULAR CELL TUMOR, NERVOUS SYSTEM: TUMOR, Tumor Site: Type of Lesion: LUNG: TUMOR, MAMMARY GLAND: TUMOR, UTERUS: TUMOR, THYROID: FOLLICULAR CELL TUMOR, NERVOUS SYSTEM: TUMOR): active; positive
- carcinogen call (Species: RAT, Strain/Sex: F344/MALE, Route: GAVAGE, 20, 40 UMOL/WK IN CORN OIL/ETHYL ACETATE (2: 1) FOR 30 WK FOR TOTAL DOSES OF 0, 0.6, 1.2 MMOL (STUDY DURATION: LIFETI, 20, 40 UMOL/WK IN CORN OIL/ETHYL ACETATE (2: 1) FOR 30 WK FOR TOTAL DOSES OF 0, 0.6, 1.2 MMOL (STUDY DURATION: LIFETI, Tumor Site: Type of Lesion: LUNG: TUMOR, TESTIS: MESOTHELIOMA, ZYMBAL GLAND: TUMOR, Tumor Site: Type of Lesion: LUNG: TUMOR, TESTIS: MESOTHELIOMA, ZYMBAL GLAND: TUMOR): active; positive
- carcinogen call (Species: RAT, Strain/Sex: F344/MALE, Route: ORAL, 20, 40 UMOL/WK IN DRINKING WATER FOR 30 WK FOR TOTAL DOSES OF 0, 0.6, 1.2 MMOL (STUDY DURATION: LIFETIME), 20, 40 UMOL/WK IN DRINKING WATER FOR 30 WK FOR TOTAL DOSES OF 0, 0.6, 1.2 MMOL (STUDY DURATION: LIFETIME), Tumor Site: Type of Lesion: LUNG: TUMOR, THYROID: FOLLICULAR CELL TUMOR, TESTIS: MESOTHELIOMA, NERVOUS SYSTEM: TUMOR, ZYMBAL GLAND: TUMOR, COLON: TU, Tumor Site: Type of Lesion: LUNG: TUMOR, THYROID: FOLLICULAR CELL TUMOR, TESTIS: MESOTHELIOMA, NERVOUS SYSTEM: TUMOR, ZYMBAL GLAND: TUMOR, COLON: TU): active; positive

SMILES: CNC(=O)Oc1cccc2c1OC(C)(C)C2
- carcinogen call (Species: MOUSE, Strain/Sex: ICR/FEMALE, Route: ORAL, 3, 8 PPM IN DRINKING WATER FOR 12 MO (STUDY DURATION: 12 MO), 3, 8 PPM IN DRINKING WATER FOR 12 MO (STUDY DURATION: 12 MO)): inactive; negative
- carcinogen call (Species: MOUSE, Strain/Sex: ICR/MALE, Route: ORAL, 3, 8 PPM IN DRINKING WATER FOR 12 MO (STUDY DURATION: 12 MO), 3, 8 PPM IN DRINKING WATER FOR 12 MO (STUDY DURATION: 12 MO)): inactive; negative
- carcinogen call (Species: Mouse, Strain/Sex: Charles River CD-1/Female (60/group), Route: Oral, 20, 125, 500 ppm in diet for 2 yrs, 20, 125, 500 ppm in diet for 2 yrs): inactive; negative (study details not given in source; purity 95.6%)
- carcinogen call (Species: Mouse, Strain/Sex: Charles River CD-1/Male (60/group), Route: Oral, 20, 125, 500 ppm in diet for 2 yrs, 20, 125, 500 ppm in diet for 2 yrs): inactive; negative (study details not given in source; purity 95.6%)
- carcinogen call (Species: Rat, Strain/Sex: Charles River CD/Female (60/group), Route: Oral, 10, 20, 100 ppm in diet for 2 yrs, 10, 20, 100 ppm in diet for 2 yrs): inactive; negative (study details not given in source; purity 95.6%)
- carcinogen call (Species: Rat, Strain/Sex: Charles River CD/Male (60/group), Route: Oral, 10, 20, 100 ppm in diet for 2 yrs, 10, 20, 100 ppm in diet for 2 yrs): inactive; negative (study details not given in source; purity 95.6%)

SMILES: NC(=O)OCCO
- carcinogen call (Species: MOUSE, Strain/Sex: STRAIN-A/MALE, Route: INTRAPERITONEAL, 1.12, 4.6, 11.2 MMOL/KG IN ISOTONIC SALINE ONCE AT 6 WK OF AGE (STUDY DURATION: 16 WK), 1.12, 4.6, 11.2 MMOL/KG IN ISOTONIC SALINE ONCE AT 6 WK OF AGE (STUDY DURATION: 16 WK), Tumor Site: Type of Lesion: LUNG: ADENOMA): active; positive

SMILES: O=S(=O)(O)c1cc(S(=O)(=O)O)c2c(N=Nc3ccc(S(=O)(=O)O)c4ccccc34)c(O)ccc2c1
- carcinogen call (Species: RAT, Strain/Sex: WISTAR/FEMALE, Route: ORAL, 50, 500, 1250 MG/KG/D IN DIET TO PUPS OF PARENTS GIVEN THE SAME DIETARY DOSE LEVELS FOR 60 D PRIOR TO MATING (STUDY D, 50, 500, 1250 MG/KG/D IN DIET TO PUPS OF PARENTS GIVEN THE SAME DIETARY DOSE LEVELS FOR 60 D PRIOR TO MATING (STUDY D): inactive; negative
- carcinogen call (Species: RAT, Strain/Sex: WISTAR/MALE, Route: ORAL, 50, 500, 1250 MG/KG/D IN DIET TO PUPS OF PARENTS GIVEN THE SAME DIETARY DOSE LEVELS FOR 60 D PRIOR TO MATING (STUDY D, 50, 500, 1250 MG/KG/D IN DIET TO PUPS OF PARENTS GIVEN THE SAME DIETARY DOSE LEVELS FOR 60 D PRIOR TO MATING (STUDY D): inactive; negative
